Measured values as given in ChEMBL document CHEMBL3507680, “University of Dundee, Gates Library screen for HepG2 cell viability”.

Experiment: Human HepG2 cell viability assay in 384 well format
Type: toxicity, cell-based
Set-up: dose 125 nL, time 70.5 hour; concentration not given beside the values
Conditions: HepG2 cells, read-out: Inhibition

SMILES | cytotoxicity at 70.5 h [%]
O=C(Nc1cccnc1)[C@H]1C[C@@H]2CN(Cc3ccc(F)cc3)C[C@H]1O2 | -7.11
O=C(NCCO)NCC(c1ccccc1)N1CCc2sccc2C1 (centres undefined) | -13.1
Cc1cnc(N2CCC3(C2)CN(S(=O)(=O)C2CC2)C3)nc1 | -8.82
O=C(O)C1(O)CCN(c2ccnc3c(C(F)(F)F)cccc23)CC1 | -25.6
CN1C[C@@H](NC(=O)c2cc(F)cc(F)c2)C[C@H]1C(=O)NCc1ncc[nH]1 | -16.2
O=C(NCC1CCCO1)c1cc(-c2ccncc2)c2cnccc2n1 (centres undefined) | -8.71
CN1CCN(c2ccccc2NC(=O)NCCc2ccc(O)cc2)CC1 | -6.51
CC(CNC(=O)N1CCSCC1)Cc1cccs1 (centres undefined) | 4.95
Cc1oc(-c2ccco2)nc1CC(=O)NCC(C)(C)N(C)C | -8.24
O=C(c1cccc2ncccc12)N1CCC(Nc2cccnn2)CC1 | -3.36
COc1ccccc1C(=O)NC(c1ccccn1)[C@H]1CC[C@H](CN)CC1 (some centres undefined) | -4.28
Cc1cccc(CS(=O)(=O)CC(=O)N(C)Cc2ccccc2F)c1 | -6.9
COc1cc(C)c(CNC(C)c2nc(C)cs2)cc1OC (centres undefined) | -2.23
COc1ccccc1C1(CNc2ncc(S(N)(=O)=O)s2)CC1 | -6.5
CC(C)NC(=O)N1CCC2(CC1)NC(=O)[C@H]1CN(C(=O)N(C)C)C[C@H]12 | -3.94
CNc1snc(C)c1C(=O)N1CCCC(n2cccn2)C1 (centres undefined) | -15
O=C(CCn1ccc2ccccc21)Nc1ccnn1CC1CCOC1 (centres undefined) | -16.3
Cn1ncnc1CNC1CCCc2cc(F)ccc21 (centres undefined) | -11.4
CCN(c1ccsc1C(=O)N1CCCCC1)S(=O)(=O)c1ccccc1 | -11.9
CN(C)CCO[C@H]1CN(Cc2ccc3c(c2)OCO3)[C@@H]2COC[C@H]12 | -4.2
c1cc(-c2cscn2)cc(N2CCC(NCCc3cccs3)CC2)c1 | 0.55
COCCN1CCN(CCCS(C)(=O)=O)CC1C (centres undefined) | 42.9

SMILES | cytotoxicity at 70.5 h [%]
COc1ccc(F)c(NCc2ccc(C(=O)N(C)C)[nH]2)c1 | 15.8
Cc1cc(C)c(CNC(=O)NCC2COCCO2)c(=O)[nH]1 (centres undefined) | -4.78
CC(C)c1nc(/C=C/c2cnn(-c3ccc(Cl)cc3)c2)ncc1C(=O)O | 22.7
OCC1CCCN1c1cc(NCc2cccc3cccnc23)ncn1 (centres undefined) | 3.27
CCC(C)(C)C(=O)N1CCN(C2=NCC(C)S2)CC1 (centres undefined) | -8.95
c1ccc(Oc2ncccc2CNCc2ccccn2)cc1 | -4.5
O=C(c1cc(Br)ccc1Cl)N1CCN(Cc2ccco2)CC1 | -4.63
Cn1ncc(C(=O)N2CCN(S(C)(=O)=O)CC2)c1Cl | 20.9
Cc1cnn(CC(C)NCc2ccc(OCc3nccn3C)cc2)c1 (centres undefined) | -5.96
CN(C)C(=O)N1C[C@@H]2COC[C@]2(CNS(C)(=O)=O)C1 | -14.4
O=C(CC1CCCC1)N1CCCC1c1nc(O)cc(-c2ccccn2)n1 (centres undefined) | -1.16
Cn1cc(-c2csc(N3CCSCC3)n2)cn1 | -3.33
CCN1CCN(C(=O)CCn2cccc2)CC1 | -12.8
O=C(Cc1csc(Cc2ccccn2)n1)NCCCN1CCCC1=O | 32.1
CCC(CNC(=O)c1ccccc1Br)N1CCc2ccccc2C1 (centres undefined) | -9.67
O=C(COCC1CCCO1)N1CCCN(Cc2ccccc2F)CC1 (centres undefined) | -5.89
CO[C@H]1CO[C@@]2(CCCN(C(=O)C3=CCCCC3)C2)C1 | -2.72
COCC(=O)N1CCC(c2c(C(=O)N(C)C)sc3ncccc23)C1 (centres undefined) | 27.1
O=C(O)c1ccc(S(=O)(=O)Nc2cccc(CC(F)(F)F)c2)c(F)c1 | -7.64
Cc1nc(C(=O)N2CCOC(c3nc(C(C)C)n[nH]3)C2)c[nH]1 (centres undefined) | -2.01
CCOC(=O)c1coc(N2CCN(Cc3cc(C)cc(C)c3)C(=O)C2)n1 | -5.18
Cc1cc(C)n(-c2ccnc(N3CCC(C(=O)N4CCCC4)CC3)n2)n1 | -4.06
